The subject of the experiment is T cells isolated from mouse spleens. Description: T cell proliferation inhibition (CFSE flow cytometry, anti-CD3/anti-CD28 stimulation). It is filed as cell-based. The following applies: mouse spleen T cells, 3 days; for inhibition at 0.01 µM / inhibition at 0.1 µM / inhibition at 1 µM / inhibition at 10 µM / inhibition at 30 µM / inhibition at 50 µM: Mus musculus, T-cell, 72 h, read-out: Proliferation inhibition rate (%). On the procedure: To verify the T cell proliferation inhibitory effect of the compounds according to the present invention, the following experiment was performed based on flow cytometry analysis using carboxyfluorescein diacetate succinimidyl ester (CFSE), a fluorescent dye that binds to intracellular molecules via covalent bonds.
Spleens were extracted from 7-week-old C57BL/6 mice, ground, and then separated into single cells using a strainer (40 μm pore size, SPL). Red blood cells were removed using ACK (Ammonium-Chloride-Potassium) lysis buffer to isolate white blood cells.
Finally, using a MACS Magnetic Stand and LS column, T cells were isolated from the spleen.
The T cells isolated from the spleen were resuspended in 1 mL of free medium (RPMI-1640+200 U/mL penicillin+200 μg/mL streptomycin), and 0.3 μL of CFSE (10 mM) was added. The mixture was incubated at 37° C. for 5 minutes.
Free medium (10 mL) was added to stop the reaction, and the cells were centrifuged to obtain the cell pellet.
RPMI 1640 medium containing 10% FBS, 100 U/mL penicillin, 100 μg/mL streptomycin, and resuspended the cells. The cells were then seeded into a 96-well plate at a density of 2×10^5 cells per well and activated with CD3 and CD28 antibodies (0.5 μg/mL each) to activate T cells.
The compound diluted in DMSO was added at concentrations of 10 nM, 100 nM, 1 μM, 10 μM, 30 μM, and 50 μM, with three wells per concentration, and cultured at 37° C. and 5% CO2 for three days. The cells were then analyzed using a FACS Canto instrument.
The proliferation inhibition rate (%) was calculated using the following formula: […]

With `Nc1ncccc1C(=O)NCCCCCCCCCCCCN1CCc2ccccc2C1` [Compound 17, 2-Amino-N-(12-(3,4-dihydroisoquinolin-2 (1H)-yl)dodecyl) nicotinamide], the “Proliferation inhibition rate (%)” value by setting is: (compound 10 nM, listed as PBK-2024-004, 0.01 µM) 0.00%; (compound 100 nM, listed as PBK-2024-004, 0.1 µM) −14.00%; (compound 1 μM, listed as PBK-2024-004, 1 µM) 100.00%; (compound 10 μM, listed as PBK-2024-004, 10 µM) 100.00%.

For `CC(C)(C)OC(=O)N[C@@H]1CCCN(CCCCCCCCCCCCNC(=O)c2cccnc2N)C1` [Compound 117, tert-butyl-(R)-(1-(12-(2-aminonicotinamido)dodecyl)piperidin-3-yl) carbamate], the “Proliferation inhibition rate (%)” value by setting is: (compound 10 nM) −15.79%; (compound 100 nM) 100.00%; (compound 1 μM) 100.00%; (compound 10 μM) 100.00%; (compound 30 μM) 100.00%; (compound 50 μM) 100.00%.

As to `COCCN1CCN(CCCCCCCCCCCCNC(=O)c2cccnc2N)CC1` [Compound 95, 2-amino-N-(12-(4-(2-methoxyethyl)piperazin-1-yl)dodecyl)nicotinamide], for the setting “compound 10 nM”, the inhibition at 0.01 µM was found to be 94.4%. The inhibition at 0.1 µM (compound 100 nM) worked out at 100%. Besides, where the note is “compound 1 μM”, the inhibition at 1 µM amounted to 100%. In addition, the inhibition at 10 µM (compound 10 μM) stood at 100%. Besides, for the setting “compound 30 μM”, the inhibition at 30 µM was 100%. The inhibition at 50 µM (compound 50 μM) is 100%.

On to `CN1CCN(CCCCCCCCCCCCNC(=O)c2cnccc2N)CC1` [Compound 211, 4-Amino-N-(12-(4-methylpiperazin-1-yl)dodecyl)nicotinamide], for which, where the note is “compound 50 μM”, the inhibition at 50 µM worked out at 100%. Moreover, the “Proliferation inhibition rate (%)” value runs as follows: (compound 10 nM, listed as KP-63, 0.01 µM) −2.17%; (compound 100 nM, listed as KP-63, 0.1 µM) −0.87%; (compound 1 μM, listed as KP-63, 1 µM) 9.70%; (compound 10 μM, listed as KP-63, 10 µM) 90.01%.

Turning to `CN1CCN(CCCCCCCCCCCCNC(=O)c2ccccc2C(=O)NC2CCCCC2)CC1` [Compound 191, N1-Cyclohexyl-N2-(12-(4-methylpiperazin-1-yl)dodecyl)phthalamide], under “compound 10 nM”, the inhibition at 0.01 µM was 0%. Also, the inhibition at 0.1 µM (compound 100 nM) worked out at 0%. For the setting “compound 1 μM”, the inhibition at 1 µM came out at 7.39%. Further, the inhibition at 10 µM (compound 10 μM) came to 93.3%. Moreover, the inhibition at 30 µM (compound 30 μM) amounted to 100%. Also, the inhibition at 50 µM (compound 50 μM) came to 100%.

For `Nc1ncccc1C(=O)NCCCCCCCCCCCCN1CCN(C(=O)C2CC2)CC1` [Compound 99, 2-amino-N-(12-(4-(cyclopropanecarbonyl)piperazin-1-yl)dodecyl)nicotinamide], the inhibition at 0.01 µM (compound 10 nM) was -12.1%. Further, the inhibition at 0.1 µM (compound 100 nM) amounted to 100%. Moreover, the inhibition at 1 µM (compound 1 μM) came out at 100%. For the same compound, the inhibition at 10 µM (compound 10 μM) came to 100%. Moreover, the inhibition at 30 µM (compound 30 μM) came out at 100%. Also, where the note is “compound 50 μM”, the inhibition at 50 µM worked out at 100%.

`Nc1ncccc1C(=O)NCCCCCCCCCCCCN1CCC2(CC1)CC2` [Compound 108, N-(12-(6-Azaspiro[2.5]octan-6-yl)dodecyl)-2-aminonicotinamide]: under “compound 10 nM”, the inhibition at 0.01 µM came out at 0.88%. The inhibition at 0.1 µM (compound 100 nM) amounted to 28.5%. The inhibition at 1 µM (compound 1 μM) was 100%. Besides, where the note is “compound 10 μM”, the inhibition at 10 µM was found to be 100%. Moreover, the inhibition at 30 µM (compound 30 μM) worked out at 100%. Also, the inhibition at 50 µM (compound 50 μM) is 100%.

As for `CCNCCCCCCCCCCCCNC(=O)c1cccnc1N` [Compound 98, 2-amino-N-(12-(ethylamino)dodecyl)nicotinamide], the inhibition at 0.01 µM (compound 10 nM) is -4.82%. Where the note is “compound 100 nM”, the inhibition at 0.1 µM is -3.95%. In addition, the inhibition at 1 µM (compound 1 μM) came to 100%. Also, the inhibition at 10 µM (compound 10 μM) amounted to 100%. The inhibition at 30 µM (compound 30 μM) is 100%. Also, the inhibition at 50 µM (compound 50 μM) amounted to 100%.

Consider `CN1CCN(CCCCCCCCCCCCNC(=O)c2c(Cl)cncc2Cl)CC1` [Compound 201, 3,5-Dichloro-N-(12-(4-methylpiperazin-1-yl)dodecyl)isonicotinamide], for which the inhibition at 0.01 µM (compound 10 nM) was determined as 7.24%. Further, under “compound 100 nM”, the inhibition at 0.1 µM stood at 6.66%. For the same compound, the inhibition at 1 µM (compound 1 μM) came to 8.54%. Also, the inhibition at 10 µM (compound 10 μM) is 78.4%. In addition, the inhibition at 30 µM (compound 30 μM) was 100%. In addition, the inhibition at 50 µM (compound 50 μM) was 100%.

On to `CN1CCN(CCCCCCCCCCCCNC(=O)c2cccc(N)c2I)CC1` [Compound 197, 3-Amino-2-iodo-N-(12-(4-methylpiperazin-1-yl)dodecyl)benzamide], for which the inhibition at 0.01 µM (compound 10 nM) was 7.81%. In addition, the inhibition at 0.1 µM (compound 100 nM) turned out to be 10.3%. Also, the inhibition at 1 µM (compound 1 μM) amounted to 16.4%. Further, the inhibition at 10 µM (compound 10 μM) is 98%. Further, the inhibition at 30 µM (compound 30 μM) amounted to 100%. The inhibition at 50 µM (compound 50 μM) came to 100%.

For the compound `Nc1ncccc1C(=O)NCCCCCCCCCCCCN1CCC(C(F)F)CC1` [Compound 107, 2-Amino-N-(12-(4-(difluoromethyl)piperidin-1-yl)dodecyl)nicotinamide], the inhibition at 0.01 µM (compound 10 nM) is -35.2%. Also, under “compound 100 nM”, the inhibition at 0.1 µM worked out at 100%. Besides, the inhibition at 1 µM (compound 1 μM) amounted to 100%. Further, the inhibition at 10 µM (compound 10 μM) stood at 100%. Also, the inhibition at 30 µM (compound 30 μM) amounted to 100%. For the setting “compound 50 μM”, the inhibition at 50 µM was determined as 100%.

With `C[C@@H](C(=O)O)N(C=O)CCCCCCCCCCCCNC(=O)c1cccnc1N` [Compound 130, N-(12-(2-aminonicotinamido)dodecyl)-N-formylalanine], the inhibition at 0.01 µM (compound 10 nM) was -4.33%. Where the note is “compound 100 nM”, the inhibition at 0.1 µM was -5.22%. For the same compound, where the note is “compound 1 μM”, the inhibition at 1 µM is 13.6%. Besides, the inhibition at 10 µM (compound 10 μM) stood at 85.4%. The inhibition at 30 µM (compound 30 μM) turned out to be 100%. Further, where the note is “compound 50 μM”, the inhibition at 50 µM is 100%.

In the case of `Cc1nn(CCCCCCCCCCCCNC(=O)c2cccnc2N)cc1Br` [Compound 105, 2-Amino-N-(12-(4-bromo-3-methyl-1H-pyrazol-1-yl)dodecyl)nicotinamide], for the setting “compound 10 nM”, the inhibition at 0.01 µM was determined as 6.73%. For the same compound, the inhibition at 0.1 µM (compound 100 nM) is 8.33%. For the same compound, the inhibition at 1 µM (compound 1 μM) was determined as 38.9%. For the same compound, the inhibition at 10 µM (compound 10 μM) worked out at 100%. The inhibition at 30 µM (compound 30 μM) stood at 100%. Also, the inhibition at 50 µM (compound 50 μM) worked out at 100%.

`CN1CCN(CCCCCCCCCCCCNC(=O)c2ccccc2-n2cccc2)CC1` [Compound 193, N-(12-(4-methylpiperazin-1-yl)dodecyl)-2-(1H-pyrrol-1-yl)benzamide]: the inhibition at 0.01 µM (compound 10 nM) amounted to 5.02%. Besides, for the setting “compound 100 nM”, the inhibition at 0.1 µM is 4.87%. The inhibition at 1 µM (compound 1 μM) was 12%. Under “compound 10 μM”, the inhibition at 10 µM came to 100%. The inhibition at 30 µM (compound 30 μM) is 100%. Moreover, where the note is “compound 50 μM”, the inhibition at 50 µM came out at 100%.

On to `CS(=O)(=O)c1ncccc1C(=O)NCCCCCCCCCCCCF` [Compound 67, N-(12-fluoro-dodecyl)-2-methylsulfonyl-nicotinamide], for which the inhibition at 0.01 µM (compound 10 nM) is 0%. Further, the inhibition at 0.1 µM (compound 100 nM) was 0%. In addition, under “compound 1 μM”, the inhibition at 1 µM was determined as 0%. In addition, for the setting “compound 10 μM”, the inhibition at 10 µM was -3.83%. Besides, the inhibition at 30 µM (compound 30 μM) was determined as 73.8%. The inhibition at 50 µM (compound 50 μM) came out at 100%.

In the case of `Cc1nccn1-c1cccc(C(=O)NCCCCCCCCCCCCN2CCN(C)CC2)c1` [Compound 207, 3-(2-methyl-1H-imidazol-1-yl)-N-(12-(4-methylpiperazin-1-yl)dodecyl)benzamide], the inhibition at 0.01 µM (compound 10 nM) was -5.35%. For the same compound, the inhibition at 0.1 µM (compound 100 nM) was -3.91%. The inhibition at 1 µM (compound 1 μM) is -3.04%. Besides, under “compound 10 μM”, the inhibition at 10 µM amounted to 100%. Further, the inhibition at 30 µM (compound 30 μM) was 100%. For the same compound, the inhibition at 50 µM (compound 50 μM) amounted to 100%.

With `CC(C)N1CCN(CCCCCCCCCCCCNC(=O)c2cccnc2N)CC1` [Compound 104, 2-Amino-N-(12-(4-isopropylpiperazin-1-yl)dodecyl) nicotinamide], the “Proliferation inhibition rate (%)” value is, setting by setting: (compound 10 nM) 100.00%; (compound 100 nM) 100.00%; (compound 1 μM) 100.00%; (compound 10 μM) 100.00%; (compound 30 μM) 100.00%; (compound 50 μM) 100.00%.

These data come from US20260183274A1, “PDK1 REGULATORY COMPOUND AND COMPOSITION CONTAINING THE SAME” (PROVIBIO CO., LTD., priority 2024, published 2026).
